The source of these data is paper PMC9404985, “Development of Dicationic Bisguanidine-Arylfuran Derivatives as Potent Agents against Gram-Negative Bacteria” (Antibiotics, 2022).

pEC50: −log10 of the molar value.

A short description of data set [1]: Cytotoxicity assay (PrestoBlue) MCF-7. The format is cell-based. The settings on record: human, MCF-7 cells (breast cancer cell line), 24 h incubation. Here is the method: (§1) The cytotoxicity levels of all compounds were evaluated against human Michigan Cancer Foundation-7 (MCF-7) and Hepatoma G2 cell line (HepG2) cell lines. MCF-7 is an extensively characterized breast cancer cell line isolated in 1970 [41], while HepG2 cells were derived from a hepatoma in 1975 [42]. Both cell lines grow robustly during in vitro culture and have been widely used for cytotoxicity testing. Cells of hepatic origin, such as HepG2, are of particular relevance for toxicity studies as many drugs accumulate in the liver during metabolic conversion. Cells were grown in Dulbecco’s Modified Eagle Medium supplemented with 10% fetal calf serum and kept in exponential growth, as previously reported. Before the assay, cells were reseeded into 96-well microtiter plates at a density allowing continued exponential growth and let to settle for 24 h. The compounds were added from a stock solution in DMSO, for a final concentration of 0.3% v/v of the solvent in the culture medium. After 24 h of incubation in presence of the compound, cell viability was assayed using PrestoBlue Cell Viability Reagent (resazurin-based solution, ThermoFisher, Waltham, MA, USA) according to the manufacturer’s instructions. […] Each assay contained a DMSO control at the equivalent starting concentration, positive control (uninhibited cell growth) and negative control (cell medium only). Survival was expressed as percentage of the solvent-only control. […] The Selectivity Index (SI) for each compound and bacterial strain was calculated as the ratio between the mean of the EC50 values for the two human cell lines and the EC50 for the bacterial strain in question ((EC50 MCF-7 + EC50 HepG2)/2)/EC50 bacterial strain).

Data set [2] can be described thus: Cytotoxicity assay (PrestoBlue) HepG2. As to conditions: human, HepG2 cells (hepatoma cell line), 24 h incubation. It counts as cell-based. Here is the method:
as §1

Data set [3] has as its system B. subtilis (NBRC/ATCC #111470). As to the kind of experiment: Antibacterial resazurin assay, laboratory strain. The settings on record: for pEC50 / EC90: Bacillus subtilis, ATCC111470, 18 h; for pEC50: read-out: Bsu EC50; for EC90: read-out: Bsu EC90; for Selectivity index B. subtilis: mean of MCF-7 and HepG2 EC50 over bacterial EC50, laboratory strain. A general note: Resazurin is reduced to fluorescent resorufin, in cell work by metabolically active cells.

Data set [4] concerns E. coli MG1655 (CGSC #6300). The data set can be described thus: Antibacterial resazurin assay, laboratory strain. The settings on record: for pEC50 / EC90: Escherichia coli, MG1655, 18 h; for pEC50: read-out: Eco EC50; for EC90: read-out: Eco EC90; for Selectivity index E. coli: mean of MCF-7 and HepG2 EC50 over bacterial EC50, laboratory strain.
In data set [5] the test system is P. putida (NBRC/ATCC #100650). As to the kind of experiment: Antibacterial resazurin assay, laboratory strain. As to conditions: for pEC50 / EC90: Pseudomonas putida, ATCC100650, 18 h; for pEC50: read-out: Ppu EC50, laboratory strain, 18 h, 37 °C, AlamarBlue; for EC90: read-out: Ppu EC90; for Selectivity index P. putida: mean of MCF-7 and HepG2 EC50 over bacterial EC50, laboratory strain.

Data set [6] has as its system P. carotovorum (NBRC/ATCC #3380). The data set can be described thus: Antibacterial resazurin assay, laboratory strain. As to conditions: for pEC50 / EC90: Pectobacterium carotovorum, ATCC3380, 18 h; for pEC50: read-out: Pcar EC50, laboratory strain, 18 h, 37 °C, AlamarBlue; for EC90: read-out: Pcar EC90; for Selectivity index P. carotovorum: mean of MCF-7 and HepG2 EC50 over bacterial EC50, laboratory strain.

The test system of data set [7] is P. caledonica (NBRC/ATCC #102488). The data set can be described thus: Antibacterial resazurin assay, laboratory strain. As to conditions: for pEC50 / EC90: Paraburkholderia caledonica, ATCC102488, 18 h; for pEC50: read-out: Pcal EC50; for EC90: read-out: Pcal EC90; for Selectivity index P. caledonica: mean of MCF-7 and HepG2 EC50 over bacterial EC50, laboratory strain.

For `N=C(N)Nc1ccc(-c2ccc(-c3ccc(NC(=N)N)cc3C(F)(F)F)o2)c(C(F)(F)F)c1` [Compound 5, 2,5-Bis(4-guanidino-2-trifluoromethylphenyl)furan], the EC50 at 24 h in data set [1] amounted to 23.2 µM; in data set [2] it was 69 µM. Besides, the pEC50 in data set [3] is less than 3.52; in data set [4], 4.53; in data set [5], 3.54; in data set [6], 3.73; in data set [7], less than 3.52. The EC90 in data set [3] is greater than 300 µM; in data set [4], 59.1 µM; in data set [5], 319 µM; in data set [6], 233 µM; in data set [7], greater than 300 µM. In addition, the “Selectivity index E. coli” value in data set [4] is 1.6. Besides, in data set [5], the “Selectivity index P. putida” value amounted to 0.2. Besides, in data set [6], the “Selectivity index P. carotovorum” value is recorded as 0.2.
`N#Cc1cc(NC(=N)N)ccc1-c1ccc(-c2ccc(NC(=N)N)cc2C#N)o1` [Compound 7, 2,5-Bis(2-cyano-4-guanidinophenyl)furan] came in with an EC50 at 24 h in data set [1] of 46 µM. Further, the EC50 at 24 h in data set [2] amounted to 78.9 µM. In data set [3], the pEC50 was 3.84, the concentration for an effect of 90% (EC90) came out at 562 µM and the “Selectivity index B. subtilis” value stood at 0.4. In data set [4], the pEC50 is 4.23, the concentration for an effect of 90% (EC90) turned out to be 350 µM and the “Selectivity index E. coli” value was determined as 1.1. Further, in data set [5], the pEC50 was 4.61, the EC90 is 51.5 µM and the “Selectivity index P. putida” value was 2.5. For the same compound, in data set [6], the pEC50 was 3.67, the EC90 turned out to be 268 µM and the “Selectivity index P. carotovorum” value was 0.3. In data set [7], the pEC50 was less than 3.52 and the EC90 is greater than 300 µM.
Regarding `Cc1nc(NC(=N)N)ccc1-c1ccc(-c2ccc(NC(=N)N)nc2C)o1` [Compound 9, 2,5-Bis(6-guanidino-2-methylpyridin-3-yl)furan], the EC50 at 24 h is greater than 1000 µM in data set [1] and greater than 100 µM in data set [2]. In addition, the pEC50 in data set [3] is 3.81; in data set [4], 3.26; in data set [5], less than 3.52; in data set [6] it was less than 3.52; in data set [7], 4.07. The EC90 in data set [3] was 246 µM; in data set [4] it was greater than 900 µM; in data set [5] it was greater than 300 µM; in data set [6], greater than 300 µM; in data set [7], 213 µM. For the same compound, the “Selectivity index B. subtilis” value in data set [3] came out at 3.6. Moreover, the “Selectivity index E. coli” value in data set [4] turned out to be 1.0. In data set [7], the “Selectivity index P. caledonica” value was 6.5.
For the compound `Nc1c(Nc2ccc(-c3ccc(-c4ccc(Nc5c(N)c(=O)c5=O)cc4Cl)o3)c(Cl)c2)c(=O)c1=O` [Compound 11, 2,5-Bis(2-chloro-4-((3,4-dioxo-2-(amino)cyclobut-1-en-1-yl)amino)phenyl)furan], the values for the EC50 at 24 h in data set [1] and in data set [2] were 508 µM and 183 µM, respectively. Besides, the pEC50 is less than 3.52 in data set [3]; less than 3.52 in data set [4]; less than 3.52 in data set [5]; less than 3.52 in data set [6]; 4.72 in data set [7]. Besides, the EC90 in data set [3] is greater than 300 µM; in data set [4] it was greater than 300 µM; in data set [5], greater than 300 µM; in data set [6] it was greater than 300 µM; in data set [7], 60.1 µM. For the same compound, the “Selectivity index P. caledonica” value in data set [7] was 18.2.
Take `Nc1c(Nc2ccc(-c3ccc(-c4ccc(Nc5c(N)c(=O)c5=O)cc4)o3)cc2)c(=O)c1=O` [Compound 12, 2,5-Bis(4-((3,4-dioxo-2-(amino)cyclobut-1-en-1-yl)amino)phenyl)furan]: the EC50 at 24 h in data set [1] and in data set [2] was greater than 1000 µM throughout. In addition, the pEC50 in data set [3], in data set [4], in data set [5], in data set [6] and in data set [7] was less than 3.52 throughout. Further, the EC90 in data set [3], in data set [4], in data set [5], in data set [6] and in data set [7] was greater than 300 µM in each case.
Take `Cc1cc(Nc2c(N)c(=O)c2=O)ccc1-c1ccc(-c2ccc(Nc3c(N)c(=O)c3=O)cc2C)o1` [Compound 13, 2,5-Bis(2-methyl-4-((3,4-dioxo-2-(amino)cyclobut-1-en-1-yl)amino)phenyl)furan]: the EC50 at 24 h is greater than 1000 µM in data set [1] and 137 µM in data set [2]. For the same compound, the pEC50 in data set [3], in data set [4], in data set [5], in data set [6] and in data set [7] was less than 3.52 throughout. The EC90 in data set [3], in data set [4], in data set [5], in data set [6] and in data set [7] was greater than 300 µM in each case.
On to `Nc1c(Nc2ccc(-c3ccc(-c4ccc(Nc5c(N)c(=O)c5=O)cc4C(F)(F)F)o3)c(C(F)(F)F)c2)c(=O)c1=O` [Compound 14, 2,5-Bis(2-trifluoromethyl-4-((3,4-dioxo-2-(amino)cyclobut-1-en-1-yl)amino)phenyl)furan], for which the figures for the EC50 at 24 h in data set [1] and in data set [2] were 173 µM and 185 µM, respectively. In addition, the pEC50 in data set [3] was less than 3.52; in data set [4] it was less than 3.52; in data set [5], less than 3.52; in data set [6] it was less than 3.52; in data set [7], 4.04. In addition, the EC90 in data set [3] is greater than 300 µM; in data set [4], greater than 300 µM; in data set [5], greater than 300 µM; in data set [6], greater than 300 µM; in data set [7], 305 µM. In addition, in data set [7], the “Selectivity index P. caledonica” value is on record as 2.0.
As to `N=C(N)Nc1ccc2c(c1)CCN2C(=O)c1ccc(-c2ccc(NC(=N)N)cc2C(F)(F)F)o1` [Compound 18, (5-(2-trifluoromethy-4-guanidinophenyl)furan-2-yl)(5-guanidinoindolin-1-yl)methanone], the EC50 at 24 h in data set [1] came to 123 µM. In data set [2], this compound registered an EC50 at 24 h of 508 µM. In data set [3], the pEC50 was 5.02, the EC90 worked out at 13.6 µM and the “Selectivity index B. subtilis” value stood at 32.9. Also, in data set [4], the pEC50 is 4.37, the EC90 came to 58.3 µM and the “Selectivity index E. coli” value worked out at 7.5. In addition, in data set [5], the pEC50 was 5.00, the EC90 was determined as 22.2 µM and the “Selectivity index P. putida” value came to 31.3. Besides, in data set [6], the pEC50 is 4.02, the EC90 is 120 µM and the “Selectivity index P. carotovorum” value is 3.3. Also, in data set [7], the pEC50 was 4.90, the EC90 was found to be 176 µM and the “Selectivity index P. caledonica” value was found to be 25.1.
In turn, `N=C(N)Nc1ccc2c(c1)CCN2C(=O)c1ccc(-c2ccccc2Cl)o1` [Compound 19, (5-(2-chlorophenyl)furan-2-yl)(5-guanidinoindolin-1-yl)methanone] had an EC50 at 24 h in data set [1] of 26.4 µM. The EC50 at 24 h in data set [2] was found to be 24.8 µM. Besides, in data set [3], the pEC50 was 4.84, the EC90 worked out at 25.9 µM and the “Selectivity index B. subtilis” value was 1.8. Moreover, in data set [4], the pEC50 is 6.30, the EC90 stood at 2.5 µM and the “Selectivity index E. coli” value is reported as 51.2. In addition, in data set [5], the pEC50 was 4.12, the EC90 came to 84.9 µM and the “Selectivity index P. putida” value is recorded as 0.3. Further, in data set [6], the pEC50 is 4.06, the EC90 is 130 µM and the “Selectivity index P. carotovorum” value was 0.3. Besides, in data set [7], the pEC50 is 4.02, the EC90 amounted to 287 µM and the “Selectivity index P. caledonica” value came out at 0.3.

The EC50 is the concentration at which the effect is half-maximal. Lower therefore signals a more potent agent. As usually defined, the pEC50 is the negative decadic logarithm of the EC50, by convention in mol/L. Broadly, the EC90 is the concentration needed for an effect of 90%.
